Data on 10 compounds can be found in ChEMBL document CHEMBL1129704, “Synthesis, biological activity and quantitative structure-activity relationships of N-substituted-3,4-dihydro-2H-1-benzopyran derivatives” (Bioorg Med Chem Lett, 1996).

Assay [1] has as its target T1, 5-hydroxytryptamine receptor 1B (Homo sapiens, UniProt P28222). As to the kind of experiment: Compound was evaluated for the binding affinity towards 5-hydroxytryptamine 1B receptor by displacement of […]. (In general: In a radioligand displacement assay an active substance lowers the binding of a labelled ligand.)
For assay [2], the target named is T2, D(1A) dopamine receptor (Homo sapiens, UniProt P21728). As to the kind of experiment: Binding affinity towards Dopamine receptor D1 by displacement of [3H]SCH-23,390.
The target of assay [3] is T3, D(2) dopamine receptor (Homo sapiens, UniProt P14416). As to the kind of experiment: Compound was evaluated for the binding affinity towards Dopamine receptor D2 by displacement of […].
The target of assay [4] is T4, 5-hydroxytryptamine receptor 1A (Homo sapiens, UniProt P08908).
T4 sequence (P08908 whole entry): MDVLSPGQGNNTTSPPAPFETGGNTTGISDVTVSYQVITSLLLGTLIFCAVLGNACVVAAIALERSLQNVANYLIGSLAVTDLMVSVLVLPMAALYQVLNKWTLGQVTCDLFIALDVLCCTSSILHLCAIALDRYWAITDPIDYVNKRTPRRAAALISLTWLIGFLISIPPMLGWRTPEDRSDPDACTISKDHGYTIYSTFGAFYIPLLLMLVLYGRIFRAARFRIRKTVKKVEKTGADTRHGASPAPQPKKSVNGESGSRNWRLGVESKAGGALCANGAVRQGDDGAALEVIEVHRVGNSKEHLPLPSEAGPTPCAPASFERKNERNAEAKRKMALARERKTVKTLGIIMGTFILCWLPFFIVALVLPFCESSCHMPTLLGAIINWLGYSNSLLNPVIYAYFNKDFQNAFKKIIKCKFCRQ
As to the kind of experiment: Binding affinity towards 5-hydroxytryptamine 1A receptor by displacement of [3H]8-OH-DPAT.

The target in assay [5] is T1, 5-hydroxytryptamine receptor 1B. As to the kind of experiment: Binding affinity towards 5-hydroxytryptamine 1B receptor by displacement of [3H]5-HT.
The target in assay [6] is T3, D(2) dopamine receptor. As to the kind of experiment: Binding affinity towards Dopamine receptor D2 by displacement of [3H]-Raclopride.
Assay [7] concerns the target 5-hydroxytryptamine receptor 2A (Homo sapiens, UniProt P28223). As to the kind of experiment: Binding affinity towards 5-hydroxytryptamine 2A receptor by displacement of [3H]ketanserin.
The target of assay [8] is T2, D(1A) dopamine receptor. As to the kind of experiment: Compound was evaluated for the Dopamine receptor D1 by displacement of [3H]SCH-23390.
Assay [9] addresses T5, 5-hydroxytryptamine receptor 2C (Homo sapiens, UniProt P28335).
T5 sequence (P28335 whole entry): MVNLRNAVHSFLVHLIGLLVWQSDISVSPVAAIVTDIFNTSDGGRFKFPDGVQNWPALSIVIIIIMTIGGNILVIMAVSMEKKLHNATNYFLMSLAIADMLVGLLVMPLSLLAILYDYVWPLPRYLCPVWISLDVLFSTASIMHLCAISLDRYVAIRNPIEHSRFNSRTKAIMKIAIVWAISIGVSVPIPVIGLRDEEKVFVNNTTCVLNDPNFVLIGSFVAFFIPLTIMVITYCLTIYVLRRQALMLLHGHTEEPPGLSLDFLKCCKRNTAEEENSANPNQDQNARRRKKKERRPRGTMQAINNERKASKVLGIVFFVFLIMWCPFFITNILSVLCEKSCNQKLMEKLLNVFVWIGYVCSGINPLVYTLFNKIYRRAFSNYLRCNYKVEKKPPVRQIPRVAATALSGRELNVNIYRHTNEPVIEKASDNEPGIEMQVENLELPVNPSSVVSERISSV
As to the kind of experiment: Compound was evaluated for the binding affinity towards 5-hydroxytryptamine 2C receptor by displacement of [3H]-Ketanserin.

In assay [10] the target is T2, D(1A) dopamine receptor. As to the kind of experiment: Compound was evaluated for the binding affinity towards Dopamine receptor D1 by displacement of […].

Each structure is given as a SMILES string.

5-hydroxytryptamine receptor 2A, sequence (P28223 whole entry): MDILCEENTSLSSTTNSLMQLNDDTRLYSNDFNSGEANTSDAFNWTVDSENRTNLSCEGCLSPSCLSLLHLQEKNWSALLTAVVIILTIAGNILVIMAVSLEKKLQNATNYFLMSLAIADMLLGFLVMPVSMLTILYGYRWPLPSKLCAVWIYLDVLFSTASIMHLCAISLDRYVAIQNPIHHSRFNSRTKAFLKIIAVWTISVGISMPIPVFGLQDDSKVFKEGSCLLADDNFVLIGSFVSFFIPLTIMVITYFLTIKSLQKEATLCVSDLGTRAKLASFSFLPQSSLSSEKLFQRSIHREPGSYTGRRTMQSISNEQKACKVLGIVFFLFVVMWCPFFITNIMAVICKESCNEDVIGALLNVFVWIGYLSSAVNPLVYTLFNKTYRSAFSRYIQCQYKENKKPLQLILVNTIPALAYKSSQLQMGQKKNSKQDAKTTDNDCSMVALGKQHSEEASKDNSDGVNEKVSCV
T1 sequence (P28222 whole entry): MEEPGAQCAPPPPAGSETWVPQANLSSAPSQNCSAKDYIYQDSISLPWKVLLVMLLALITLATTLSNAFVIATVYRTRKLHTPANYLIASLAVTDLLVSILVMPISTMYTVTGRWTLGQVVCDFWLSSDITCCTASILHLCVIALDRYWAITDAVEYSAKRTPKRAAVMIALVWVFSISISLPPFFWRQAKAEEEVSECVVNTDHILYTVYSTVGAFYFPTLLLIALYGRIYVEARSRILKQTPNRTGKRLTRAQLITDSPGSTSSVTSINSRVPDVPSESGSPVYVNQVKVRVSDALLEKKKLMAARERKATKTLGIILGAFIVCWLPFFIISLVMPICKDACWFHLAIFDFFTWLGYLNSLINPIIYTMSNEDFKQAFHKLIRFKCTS
T2 sequence (P21728 whole entry): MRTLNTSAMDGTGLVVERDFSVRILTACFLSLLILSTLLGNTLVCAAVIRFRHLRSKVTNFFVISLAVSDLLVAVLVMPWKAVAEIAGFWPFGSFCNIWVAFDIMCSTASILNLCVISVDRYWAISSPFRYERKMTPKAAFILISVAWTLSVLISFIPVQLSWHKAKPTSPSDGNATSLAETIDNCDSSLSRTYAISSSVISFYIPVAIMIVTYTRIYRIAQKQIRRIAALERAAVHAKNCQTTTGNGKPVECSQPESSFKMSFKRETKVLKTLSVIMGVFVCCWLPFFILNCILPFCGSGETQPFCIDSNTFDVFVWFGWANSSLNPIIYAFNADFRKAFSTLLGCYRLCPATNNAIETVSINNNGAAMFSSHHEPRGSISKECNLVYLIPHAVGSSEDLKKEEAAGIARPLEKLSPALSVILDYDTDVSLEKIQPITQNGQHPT
T3 sequence (P14416 whole entry): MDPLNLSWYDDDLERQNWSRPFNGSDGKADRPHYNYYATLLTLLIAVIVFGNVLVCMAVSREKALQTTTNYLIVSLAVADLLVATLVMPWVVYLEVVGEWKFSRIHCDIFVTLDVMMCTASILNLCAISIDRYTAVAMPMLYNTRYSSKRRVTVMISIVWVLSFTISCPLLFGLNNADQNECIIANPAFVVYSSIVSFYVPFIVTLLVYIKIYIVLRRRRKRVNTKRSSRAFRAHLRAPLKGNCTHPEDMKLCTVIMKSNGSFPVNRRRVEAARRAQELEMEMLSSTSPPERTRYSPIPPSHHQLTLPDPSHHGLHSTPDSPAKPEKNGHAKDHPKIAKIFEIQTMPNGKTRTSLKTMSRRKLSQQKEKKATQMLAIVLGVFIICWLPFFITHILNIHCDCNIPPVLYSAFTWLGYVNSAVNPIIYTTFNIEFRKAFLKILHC

As a reminder, the IC50 is the concentration that inhibits the measured activity by half. As for `COc1cccc2c1CC1(CCCN1CCCCN1C(=O)CC3(CCCC3)CC1=O)CO2` (stereo unspecified), the IC50 in [1] was 6.61 µM; at D(1A) dopamine receptor [2], over 10 µM; at D(2) dopamine receptor [3], 1.1 µM; in assay [4], 0.0107 µM; in assay [5], 3.8 µM.

`O=C1CC2(CCCC2)CC(=O)N1CCCCNCC1COc2ccccc2C1` (stereo unspecified): the IC50 at D(1A) dopamine receptor [2] was 3.31 µM; on D(2) dopamine receptor [6] it was 0.0676 µM; in assay [4], 0.00631 µM; in [5] it was 6.92 µM; in assay [7] it was 0.0562 µM.

With `CCCN1CCN(CCC)C2(COc3cccc(OC)c3C2)C1` (stereo unspecified), the IC50 was 3.02 µM in assay [4], over 100 µM in [5] and 10 µM in assay [7].

As to `COc1cccc2c1CC(CNCCCCN1C(=O)CC3(CCCC3)CC1=O)CO2` (stereo unspecified), the IC50 at D(1A) dopamine receptor [2] is 0.832 µM; at D(2) dopamine receptor [6], 0.0295 µM; in assay [4], 0.000129 µM; in assay [5], 3.02 µM; in [7], 0.049 µM.

Take `CCCN1CCN(Cc2ccccc2)CC12COc1cccc(OC)c1C2` (stereo unspecified): the IC50 is 15.8 µM in assay [4], 35.5 µM in [5] and 24.5 µM in assay [7].

Take `CCCN1CCN(CCCCN2C(=O)CC3(CCCC3)CC2=O)CC12COc1cccc(OC)c1C2` (stereo unspecified): the values for the IC50 in assay [4], in assay [5] and in assay [7] were 15.8 µM, 1.58 µM and 11.2 µM, respectively.

With `CCCN(CCCCN1C(=O)CC2(CCCC2)CC1=O)C1COc2cccc(OC)c2C1` (stereo unspecified), the IC50 at D(2) dopamine receptor [6] is 0.01 µM; at D(1A) dopamine receptor [8], 39.8 µM; in assay [7] it was 1 µM.

As for `CCCN(CCC)CC1COc2cccc(OC)c2C1` (stereo unspecified), the IC50 in assay [9] is 33.9 µM; on D(1A) dopamine receptor [10], 34.7 µM; at D(2) dopamine receptor [6], 2.57 µM; in assay [4], 0.234 µM; in [5], 22.9 µM; in assay [7] it was 15.8 µM.

For the compound `CCCN(CCC)CC1(N(CCC)CCC)COc2cccc(OC)c2C1` (stereo unspecified), the 50% inhibitory concentration (IC50) in assay [4] is 4.17 µM; in assay [5], 138 µM; in assay [7], 214 µM.

In the case of `CCCN(CCCCN1C(=O)CC2(CCCC2)CC1=O)CC1COc2cccc(OC)c2C1` (stereo unspecified), the IC50 on D(1A) dopamine receptor [2] is 13.8 µM; on D(2) dopamine receptor [6], 1.78 µM; in assay [4] it was 0.513 µM; in assay [5], 7.41 µM; in assay [7], 7.76 µM.
